Data from patent US5770713A, “Phosphorothioate triester oligonucleotides and method of preparation” (Centre National de la Recherche Scientifique, priority 1993, dated 1998).

Tests used:
[1] = Stability of oligonucleotides in cellular extract (CEM cells), HPLC; format: in vitro ADME; conditions: 37° C.
Description: (§1) Distilled water is purified on a MilliQ system (Waters-Millipore), Acetonitrile is of HPLC-far UV quality (Fisons), Ammonium acetate is of "analytical" quality (MERCK), The culture media are composed of 90% of RPMI 1640 and 10% of heat-inactivated fetal calf serum (GIBCO), The cellular extracts were kindly supplied by a person -M. Aubertin (University of Strasbourg I). They are prepared in the following way: CEM cells in the exponential growth phase are separated from the culture medium by centrifugation (10^4 g, 4 min, […]). The residue (approximately100 μl, 5×10^7 cells) is dissolved in 2 ml of buffer (Tris-HCl 140 mM, pH=7.4) and sonicated. The lysate is centrifuged (10^5 g, 1 h, 4°) to eliminate membranes, organelles and chromatin. Two types of eluents were utilized for the HPLC:
(§2) The general conditions are the same as those used for the study of stability of the phosphorothioate triester dimers, as far as the method, the equipment and the chemical products are concerned. […]
10 μl of oligonucleotide parent solution are added to 990 μl of cellular extract which have previously been filtered on a sterile Millex GV filter (Millipore, 0.22 μm). After mixing, fractions (100 μl) are distributed in sterile Eppendorf tubes, placed in an oven at 37° C., sampled at different times and immediately analyzed by HPLC.

[2] = Stability of oligonucleotides in culture medium (RPMI + 10% serum), HPLC; format: in vitro ADME, fetal calf; conditions: 37° C.
Description: as §1, §2
30 μl of parent solution of oligonucleotide (being approximately 1.5 A260 units) are removed, which are added to 1470 μl of culture medium which has previously been filtered on a sterile Millex GV filter (Millipore 0.22 μm). […] The samples are immediately analyzed by HPLC (volume injected 80 μl) or preserved at -25° C. with a view to subsequent analysis.

[3] = Stability of dimers in culture medium (RPMI + 10% serum), HPLC; format: in vitro ADME, fetal calf; conditions: 37° C., C0 =5×10^-5 M; for % PS^- (molar fraction of phosphorothioate diester dinucleoside formed, relative to initial quantity of phosphorothioate triester dinucleoside): after complete decomposition of the starting triester; for % PO^- (molar fraction of phosphodiester dinucleoside, relative to initial quantity of phosphorothioate triester dinucleoside): calculated as 100-% PS^- formed; for half-life at 50 µM: read-out: t1/2 (time at the end of which half of the starting product has decomposed) (converted)
Description: as §1
(§3) A 10^-2 M solution of the compound to be studied is prepared in DMSO.
(§4) This solution is diluted with water to give a parent solution of concentration 5×10^-4 M.
a) Study of stability in culture medium:
100 μl of parent solution of the compound to be studied are added to 900 μl of culture medium which has previously been filtered on a Millex GV sterile filter (Millipore, 0.22 μm). After mixing, fractions (100 μl) are distributed in sterile Eppendorf tubes. These tubes are placed in an oven at 37° C. and removed as a function of the kinetic development. The samples are immediately analyzed by HPLC (volume injected: 80 μl) or preserved at -25° C. with a view to subsequent analysis.
(§5) tl/2 =time at the end of which half of the starting product has decomposed
(§6) % PO^- , % PS^- =molar fractions of phosphodiester dinucleoside and of phosphorothioate diester dinucleoside, expressed in relation to the initial quantity of phosphorothioate triester dinucleoside.
(§7) The percentage of PS^- corresponds to the quantity of phosphorothioate diester dinucleoside formed after complete decomposition of the starting phosphorothioate triester dinucleoside (considering that the phosphorothioate diester dinucleoside is stable under the condition used and accumulates).

[4] = Stability of dimers in cellular extract (CEM cells), HPLC; format: in vitro ADME; conditions: 37° C., C0 =5×10^-5 M; for % PS^- (molar fraction of phosphorothioate diester dinucleoside formed, relative to initial quantity of phosphorothioate triester dinucleoside): after complete decomposition of the starting triester; for half-life at 50 µM: human, cem cell extract, read-out: t1/2 (time at the end of which half of the starting product has decomposed)
Description: as §1, §3, §4
b) Study of stability in cellular extract: 100 μl of parent solution of the compound to be studied are added to 900 μl of cellular extract which has previously been filtered on a Millex GV sterile filter (Millipore, 0.22 μm). After mixing, fractions (100 μl) are distributed in Eppendorf tubes. These tubes are placed in an oven at 37° C. and removed as a function of the kinetic development. The samples are immediately analyzed by HPLC.
as §5, §6, §7

Row | Molecule | t1/2 of disappearance of the starting oligonucleotide [1] | t1/2 of formation of the totally deprotected oligonucleotide [1] | t1/2 of disappearance of the starting oligonucleotide [2] | % PS^- (molar fraction of phosphorothioate diester dinucleoside formed, relative to initial quantity of phosphorothioate triester dinucleoside) [3] | % PO^- (molar fraction of phosphodiester dinucleoside, relative to initial quantity of phosphorothioate triester dinucleoside) [3] | half-life at 50 µM [3] | % PS^- (molar fraction of phosphorothioate diester dinucleoside formed, relative to initial quantity of phosphorothioate triester dinucleoside) [4] | half-life at 50 µM [4]
1 | 6b: completely alkylated phosphorothioate dodecamer 6b; from d(CP(S) Ap(s) Cp(s) Cp(s) Cp(s) Ap(s) Ap(s) Tp(s) Tp(s) Cp(s) Tp(s) G) SEQ. ID. NO: 1 (CACCCAATTCTG; DNA, backbone not given here; all phosphorothioate linkages alkylated) [Compound 6b, completely alkylated phosphorothioate dodecamer 6b; ID; NO: 1] | < 2 min | 25 min | 55 min | – | – | – | – | –
2 | Cc1cn([C@H]2C[C@H](OP(=O)(OC[C@H]3O[C@@H](n4cc(C)c(=O)[nH]c4=O)C[C@@H]3O)SCOC(=O)C(C)(C)C)[C@@H](CO)O2)c(=O)[nH]c1=O (stereo partly drawn) [Compound 4a, O-(Thymidin-3'-yl) O-(thymidin-5'-yl) S-(pivaloyloxymethyl) phosphorothioate] | – | – | – | 20% | 80% | 360 min | 100% | 40 min
3 | CC(=O)SCCSP(=O)(OC[C@H]1O[C@@H](n2cc(C)c(=O)[nH]c2=O)C[C@@H]1O)O[C@H]1C[C@H](n2cc(C)c(=O)[nH]c2=O)O[C@@H]1CO (stereo partly drawn) [Compound 4b, O-(Thymidin-3'-yl) O-(thymidin-5'-yl) S-(acetylthioethyl) phosphorothioate] | – | – | – | 50% | 50% | 420 min | 100% | 10 min
4 | CC(=O)SCSP(=O)(OC[C@H]1O[C@@H](n2cc(C)c(=O)[nH]c2=O)C[C@@H]1O)O[C@H]1C[C@H](n2cc(C)c(=O)[nH]c2=O)O[C@@H]1CO (stereo partly drawn) [Compound 4c, O-(Thymidin-3'-yl) O-(thymidin-5'-yl) S-(acetylthiomethyl) phosphorothioate] | – | – | – | 80% | 20% | 60 min | 100% | 5 to 10 min
